Earlier results in publication PMC5655430 (PLoS ONE, 2017).

Columns and labels:
[1] = system: glucagon-like peptide 1 receptor (Glp1r)
Text: (§1) The complex nature of diabetic disorder necessitates use of combination therapies that will not only reduce hyperglycemia, but also correct other elements of diabetes complication, such as dyslipidemia. An increasingly common approach in peptide therapeutics focuses on hybrid peptides that can target two or even three receptors. […] Similar dual agonist peptides, with improved half-life and potency have been rep ...

glucagon receptor (Gcgr) = system: glucagon receptor (Gcgr)
Text: as §1

In the case of Oxyntomodulin, the “Binding and activation on Glp1r” value [1] is given as “weak binding and activation” and the “Binding and activation on Gcgr” value (glucagon receptor (Gcgr)) is given as “weak binding and activation”.
